Values quoted from earlier work as cited in US9155308B2, “Agricultural pesticide formulation” (priority 2013, dated 2015).

Conditions: based on animal studies

## Cc1c(COC(=O)[C@@H]2[C@H](/C=C(\Cl)C(F)(F)F)C2(C)C)cccc1-c1ccccc1 (racemic) [bifenthrin, Bifenthrin]
Daily exposure
  chronic reference dose (RfD): 0.013 mg/kg bodyweight/day
one-time exposure
  acute reference dose (RfD): 0.328 mg/kg bodyweight/day
